Biological target: T1, thrombin (Bos taurus, UniProt P00735)
T1 construct: purchased Sigma T-3399
Assay: biological assay for thrombin inhibitory activity (fluorogenic substrate)
Format: biochemical
Settings: for inhibition at 50 µM: test probe concentration 50 μM; for inhibition at 100 µM: test probe concentration 100 μM
Protocol: The biological assay for thrombin inhibitory activity is detailed below. To Costar® 96-well black fluorescence plate wells is added 70 microliters of assay buffer, followed by 10 microliters of 1 millimolar substrate solution. Test probe (10 microliters in 30% DMSO) is then added to wells according to the desired concentrations for the assay. The mixture is incubated at 37° C. for 5 minutes, followed by addition of 10 microliters of thrombin (100 micrograms/mL in assay buffer), to make a final assay volume of 100 microliters. The plate is mixed gently and incubated 15 minutes at 37° C. Stop buffer (100 microliters) is added, and the plate is read by detecting fluorescence intensity (Excitation at 360 nm, Emission at 460 nm). Percent inhibition of test compound is calculated by comparison with control wells. “Assay buffer” is composed of 100 mM KH2PO4, 100 mM Na2HPO4, 1 mM EDTA, 0.01% BRIJ-35, and 1 mM dithiothreitol (added fresh on the day assay is preformed). “Stop buffer” is composed of 100 mM Na—O(O)CCH2Cl and 30 mM sodium acetate which is brought to pH 2.5 with glacial acetic acid. Thrombin was purchased from Sigma (cat #T-3399). Thrombin substrate III fluorogenic was purchased from ICN (cat #195915). Sodium acetate, dithiothreitol, and Brij-35 were purchased from Sigma. Sodium monochloroacetate was purchased from Lancaster 223-498-3. Glacial acetic acid was purchased from Alfa Aesar (cat # 33252). Thrombin was stored at −20° C. Thrombin substrate fluorogenic was stored at −20° C. (5 mM in DMSO).

Compound: CC(NC(=O)C(NC(=O)c1n[nH]c2ccccc12)C1CCNCC1)c1ccccc1 (stereo not drawn) [Example B3]
- inhibition at 50 µM: 10 to 39%
- inhibition at 100 µM: 40 to 74%

Compound: CCCCN(CCCC)CCCNC(=O)c1cc(Cl)ccc1NC(=O)c1n[nH]c2ccccc12 [Example B2]
- inhibition at 50 µM: 10 to 39%
- inhibition at 100 µM: 40 to 74%

Compound: COc1ccc(CNC(=O)c2cc(Cl)ccc2NC(=O)c2n[nH]c3ccccc23)cc1OC [Example B1]
- inhibition at 50 µM: 10 to 39%
- inhibition at 100 µM: 40 to 74%

Reference: US20040019432A1, “System and method for integrated computer-aided molecular discovery” (priority 2002, published 2004)
